Measurements published in patent US20150126467A1, “USE OF ALGINATE OLIGOMERS TO ENHANCE THE EFFECTS OF ANTIFUNGAL AGENTS” (AlgiIPharma AS, priority 2011, published 2015).
≈ marks a conversion by molar mass, not a printed value. Where two headings read alike, the source gives them in different places.

Columns and labels:
[1] = system: various Aspergillus species; assay: Robotic MIC assay, summary over species (Example 4); assay type: cell-based; details: Aspergillus species tested
Description: Aspergillus sp. was grown at 30° C. for 96 h on YM-agar. Spores and aerial mycelium was cut out from the agar, suspended in 1 ml YM-broth and dispersed with glass beads (1 mm) in a mini bead beater for 2 min. Glycerol was added to the suspension to 10% and frozen at −80° C.
Each batch of frozen stock culture was then characterized in separate growth experiments using Mueller-Hinton broth to determine the minimum amount of inoculum giving satisfactory growth after 48 h under the conditions relevant for the MIC assay. This inoculation procedure is used in order to reduce day to day variation in bioassays.
Robotic minimum inhibitory concentration (MIC) assay was performed as follows. OligoG CF-5/20 was dissolved in medium (Mueller-Hinton broth) to 1.25 times of the desired assay concentrations (2, 6 and 10%). […].
Two-fold serial dilutions of antifungal agents were made in medium with different concentrations of OligoG CF-5/20, and the solutions were placed in four parallel wells in Nunc 384-well micro plates (30 μl per well in Nunc 242757 microplates). A group of 8 wells with no addition of antifungal agents for each OligoG CF-5/20 concentration was included on each micro plate as growth reference. Each well in the 384-well assay plates was added 7.5 μl of the MH medium inoculated with frozen stock culture of the relevant strains.
The microplates were placed in plastic bags and incubated without shaking at 34° C. The optical density at 600 nm in the microwells was measured after approximately 24 and 48 hours of incubation. […]

[2] = system: C. parapsillosis ATCC 22019T; assay: Robotic MIC assay, Candida strains (Example 2); assay type: cell-based, Candida parapsilosis; details: Lodderomyces parapsilosis, ATCC22019, 48 h, Mueller-Hinton broth, read-out: Minimum Inhibitory Concentration (MIC)
Description: (§1) A robotic MIC Assay was performed as follows. OligoG CF-5/20 were dissolved in medium (Mueller-Hinton broth or M19 broth depending on experiment) to 1.25 times of the desired assay concentrations (2, 6 and 10%). The antifungal agents under test were dissolved in medium without OligoG CF-5/20 and in medium with OligoG CF-5/20 at a concentration of 1.25 times the highest desired assay concentrations. For experiments where the effect of adding different concentrations of Na^+ was investigated, NaCl was dissolved in medium to the desired concentrations (10, 30 and 50 mM).
(§2) Two-fold serial dilutions of antifungal agents were made in medium with different concentrations of OligoG CF-5/20, and the solutions were placed in four parallel wells in Nunc 384-well micro plates (30 μl per well in Nunc 242757 microplates). A group of 8 wells with no addition of antifungal agents for each OligoG CF-5/20 concentration was included on each microplate as growth reference. To each well in the 384-well assay plates was added 7.5 μl of medium inoculated with a frozen stock culture of Candida albicans (strain CCUG 39343).
(§3) The micro plates were placed in plastic bags and incubated without shaking at 34° C. The optical density at 600 nm in the microwells was measured after approximately 13, 18, 24 and 34 hours of incubation, and the relative growth yield in each well was calculated based on the growth in the reference groups.
(§4) The robotic assay described in Example 1 was employed in this Example. Strains were grown in Mueller-Hinton broth (LAB114 from Lab M Limited) and MIC values (μg ml-1) were determined for each antifungal after incubation for 48 h in the presence of 0, 2, 6 and 10% OligoG CF-5/20 G-fragments. […] OligoG CF-5/20 G-fragments were provided by AlgiPharma AS, Norway.
(§5) Candida strains used were as follows: • C. albicans CCUG 39343 (strain from culture collection) • C. parapsillosis ATCC 22019T (strain from culture collection) • C. krusei 141/03 (candidosis) • C. krusei 249/03(2) (ulceration) • C. lusitaniae 994/01(2) (candidosis) • C. tropicalis 12 (vaginal) • C. tropicalis 75 (vaginal) • C. tropicalis 519468 (urinary) • C. tropicalis 544123 (urinary) • C. tropicalis 250/03 (candidosis) • C. tropicalis AG1 (oral) • C. tropicalis T2.2 (oral)

[3] = system: C. tropicalis 250/03 (candidosis); assay: Robotic MIC assay, Candida strains (Example 2); assay type: cell-based; details: Candida tropicalis, 48 h, C. tropicalis 250/03 Candiosis, Mueller-Hinton broth, read-out: Minimum Inhibitory Concentration (MIC)
Description: as §1, §2, §3, §4, §5

[4] = system: C. albicans CCUG 39343; assay: Robotic MIC assay, Candida strains (Example 2); assay type: cell-based; details: Candida albicans, CCUG39343, 48 h, Mueller-Hinton broth, read-out: Minimum Inhibitory Concentration (MIC)
Description: as §1, §2, §3, §4, §5

[5] = system: C. krusei 249/03(2) (ulceration); assay: Robotic MIC assay, Candida strains (Example 2); assay type: cell-based; details: Pichia kudriavzevii, 48 h, Mueller-Hinton broth, read-out: Minimum Inhibitory Concentration (MIC)
Description: as §1, §2, §3, §4, §5

[6] = system: C. krusei 141/03 (candidosis); assay: Robotic MIC assay, Candida strains (Example 2); assay type: cell-based; details: Pichia kudriavzevii, 48 h, Mueller-Hinton broth, read-out: Minimum Inhibitory Concentration (MIC)
Description: as §1, §2, §3, §4, §5

[7] = system: C. tropicalis 544123 (urinary); assay: Robotic MIC assay, Candida strains (Example 2); assay type: cell-based; details: Candida tropicalis, 48 h, Mueller-Hinton broth, read-out: Minimum Inhibitory Concentration (MIC)
Description: as §1, §2, §3, §4, §5

[8] = system: C. tropicalis 519468 (urinary); assay: Robotic MIC assay, Candida strains (Example 2); assay type: cell-based; details: Candida tropicalis, 48 h, Mueller-Hinton broth, read-out: Minimum Inhibitory Concentration (MIC)
Description: as §1, §2, §3, §4, §5

[9] = system: C. tropicalis 75 (vaginal); assay: Robotic MIC assay, Candida strains (Example 2); assay type: cell-based; details: Candida tropicalis, 48 h, Mueller-Hinton broth, read-out: Minimum Inhibitory Concentration (MIC)
Description: as §1, §2, §3, §4, §5

[10] = system: C. lusitaniae 994/01(2) (candidosis); assay: Robotic MIC assay, Candida strains (Example 2); assay type: cell-based; details: Clavispora lusitaniae, 48 h, Mueller-Hinton broth, read-out: Minimum Inhibitory Concentration (MIC)
Description: as §1, §2, §3, §4, §5

[11] = system: C. tropicalis T2.2 (oral); assay: Robotic MIC assay, Candida strains (Example 2); assay type: cell-based; details: Candida tropicalis, 48 h, Mueller-Hinton broth, read-out: Minimum Inhibitory Concentration (MIC)
Description: as §1, §2, §3, §4, §5

[12] = system: C. tropicalis 12 (vaginal); assay: Robotic MIC assay, Candida strains (Example 2); assay type: cell-based; details: Candida tropicalis, 48 h, Mueller-Hinton broth, read-out: Minimum Inhibitory Concentration (MIC)
Description: as §1, §2, §3, §4, §5

[13] = system: C. tropicalis AG1 (oral); assay: Robotic MIC assay, Candida strains (Example 2); assay type: cell-based; details: Candida tropicalis, 48 h, Mueller-Hinton broth, read-out: Minimum Inhibitory Concentration (MIC)
Description: as §1, §2, §3, §4, §5

C[C@@H]1[C@H](O)[C@@H](C)/C=C/C=C/C=C/C=C/C=C/C=C/C=C/[C@H](O[C@@H]2O[C@H](C)[C@@H](O)[C@H](N)[C@@H]2O)C[C@@H]2O[C@](O)(C[C@@H](O)C[C@@H](O)[C@H](O)CC[C@@H](O)C[C@@H](O)CC(=O)O[C@H]1C)C[C@H](O)[C@H]2C(=O)O [Amphotericin B, amphotericin B]
effect of addition of OligoG CF-5/20 on MIC values [1]: reduction in MIC values

OC(Cn1cncn1)(Cn1cncn1)c1ccc(F)cc1F [Fluconazole, fluconazole]
MIC ([2]; 0% OligoG): 2 µg/mL (≈ 6.53 µM)
MIC ([2]; 2% OligoG): 2 µg/mL (≈ 6.53 µM)
MIC ([2]; 6% OligoG): 0.5 µg/mL (≈ 1.63 µM)
MIC ([2]; 10% OligoG): 0.25 µg/mL (≈ 0.816 µM)
MIC ([3]; 0% OligoG): 8 µg/mL (≈ 26.1 µM)
MIC ([3]; 2% OligoG): 4 µg/mL (≈ 13.1 µM)
MIC ([3]; 6% OligoG): 2 µg/mL (≈ 6.53 µM)
MIC ([3]; 10% OligoG): 2 µg/mL (≈ 6.53 µM)
MIC ([4]; 0% OligoG): 16 µg/mL (≈ 52.2 µM)
MIC ([4]; 2% OligoG): 16 µg/mL (≈ 52.2 µM)
MIC ([4]; 6% OligoG): 8 µg/mL (≈ 26.1 µM)
MIC ([4]; 10% OligoG): 4 µg/mL (≈ 13.1 µM)
MIC ([5]; 0% OligoG): 8 µg/mL (≈ 26.1 µM)
MIC ([5]; 2% OligoG): 4 µg/mL (≈ 13.1 µM)
MIC ([5]; 6% OligoG): 2 µg/mL (≈ 6.53 µM)
MIC ([5]; 10% OligoG): 1 µg/mL (≈ 3.27 µM)
MIC ([6]; 0% OligoG): 128 µg/mL (≈ 418 µM)
MIC ([6]; 2% OligoG): 64 µg/mL (≈ 209 µM)
MIC ([6]; 6% OligoG): 64 µg/mL (≈ 209 µM)
MIC ([6]; 10% OligoG): 64 µg/mL (≈ 209 µM)
MIC ([7]; 0% OligoG): 1 µg/mL (≈ 3.27 µM)
MIC ([7]; 2% OligoG): 1 µg/mL (≈ 3.27 µM)
MIC ([7]; 6% OligoG): 0.5 µg/mL (≈ 1.63 µM)
MIC ([7]; 10% OligoG): 0.25 µg/mL (≈ 0.816 µM)
MIC ([8]; 0% OligoG): 128 µg/mL (≈ 418 µM)
MIC ([8]; 2% OligoG): 1 µg/mL (≈ 3.27 µM)
MIC ([8]; 6% OligoG): 0.5 µg/mL (≈ 1.63 µM)
MIC ([8]; 10% OligoG): 0.25 µg/mL (≈ 0.816 µM)
MIC ([9]; 0% OligoG): 2 µg/mL (≈ 6.53 µM)
MIC ([9]; 2% OligoG): 1 µg/mL (≈ 3.27 µM)
MIC ([9]; 6% OligoG): 0.5 µg/mL (≈ 1.63 µM)
MIC ([9]; 10% OligoG): 0.25 µg/mL (≈ 0.816 µM)
MIC ([10]; 0% OligoG): 0.5 µg/mL (≈ 1.63 µM)
MIC ([10]; 2% OligoG): 0.25 µg/mL (≈ 0.816 µM)
MIC ([10]; 6% OligoG): < 0.125 µg/mL
MIC ([10]; 10% OligoG): < 0.125 µg/mL
MIC ([11]; 0% OligoG): > 128 µg/mL
MIC ([11]; 2% OligoG): 0.5 µg/mL (≈ 1.63 µM)
MIC ([11]; 6% OligoG): 0.25 µg/mL (≈ 0.816 µM)
MIC ([11]; 10% OligoG): < 0.125 µg/mL
MIC ([12]; 0% OligoG): 1 µg/mL (≈ 3.27 µM)
MIC ([12]; 2% OligoG): 1 µg/mL (≈ 3.27 µM)
MIC ([12]; 6% OligoG): < 0.125 µg/mL
MIC ([12]; 10% OligoG): < 0.125 µg/mL
MIC ([13]; 0% OligoG): 128 µg/mL (≈ 418 µM)
MIC ([13]; 2% OligoG): > 128 µg/mL
MIC ([13]; 6% OligoG): 0.5 µg/mL (≈ 1.63 µM)
MIC ([13]; 10% OligoG): 0.125 µg/mL (≈ 0.408 µM)
